US20150166505A1, “PYRIDINYL-SUBSTITUTED PYRAZOLYL CARBOXAMIDES” (GRÜNENTHAL GMBH, priority 2013, published 2015)
Where a name gives a salt, the structure may show the parent alone. Read-outs that look alike come from different tables or passages of the source.

Columns and labels:
[1] = biological target: T1, CRAC channel (endogenous SOC in HEK293 cells) (Homo sapiens, UniProt Q96D31); test: HEK Calcium Influx Assay (FLIPR); assay type: cell-based
T1 construct: endogenous in cells; host or cells: HEK293 (ECACC)
T1 sequence (Q96D31 whole entry): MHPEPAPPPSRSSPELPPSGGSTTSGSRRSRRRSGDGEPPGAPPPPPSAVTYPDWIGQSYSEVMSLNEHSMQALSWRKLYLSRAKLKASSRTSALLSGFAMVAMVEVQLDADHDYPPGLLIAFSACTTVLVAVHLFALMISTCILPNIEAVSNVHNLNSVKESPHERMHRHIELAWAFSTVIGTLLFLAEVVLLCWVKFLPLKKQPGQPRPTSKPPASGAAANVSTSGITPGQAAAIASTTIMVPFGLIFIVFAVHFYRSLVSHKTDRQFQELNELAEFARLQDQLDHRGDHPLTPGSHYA
Description: The effect of compounds of the invention on intracellular [Ca^2+] was tested in the HEK293 cell line (ECACC). HEK293 cells were cultured in DMEM/F12/Glutamax (Gibco) containing 10% FCS (Gibco), and maintained at 37° C., 5% CO2. Cell were split twice a week [3*10^6 (Mon-Thu) and 1*10^6 (Thu-Mon) cells/50 ml medium in T-175 ZK culture flasks, respectively]. Twenty four hours pre-experiment, cells were seeded on 96 well plates (Poly-D-Lysine 96well Black/Clear Plate, BD Biocoat REF 356640) at a density of 40,000 cells/well in DMEM/F12 (Gibco) containing 10% FCS (Gibco), and maintained at 37° C., 5% CO2. Prior to store-depletion, cell culture medium was removed and cells were loaded with the a Calcium-sensitive fluorescent dye comprised within the Calcium-4-assay kit (Molecular Devices) in nominally Ca^2+-free HBS buffer (140 mM NaCl, 4 mM KCl, 0.2 mM MgCl2, 11 mM D-glucose, and 10 mM HEPES, pH 7.4) according to manufacturer's instruction for 60 min at 37° C., 5% CO2. Passive depletion of intracellular Ca^2+-stores was then triggered by employing the SERCA inhibitor thapsigargin (2 μM final) for 10 min in the dark (RT). To prevent immediate Ca^2+-entry via the activated Store-operated channels (SOCs), cells were maintained in Ca^2+-free HBS buffer comprising 100 μM EGTA during store-depletion. Intracellular changes in [Ca^2+] were subsequently monitored with the FLIPR device (Molecular Devices). In brief, baseline imaging post-store depletion was allowed for 1 min before adjusting the extracellular buffer to 3 mM CaCl2. Increases in intracellular [Ca^2+] due to pre-activated SOC channels were monitored for 15 min until intracellular Ca^2+ levels had declined into a steady-state. Finally, compounds were administered and Ca^2+ signals were recorded for additional 10 min. Inhibition of endogenous SOC in HEK293 cells was quantified employing the average Ca^2+ signal measured from 9.5-10 min post-administration. Zero percent inhibition (MAX) was defined as the Ca^2+ signal recorded from wells to which DMSO-only had been added instead of compound. Hundred percent inhibition (MIN) was defined as the signal obtained from wells in which cells haven't been treated with TG prior to Ca^2+ addition and to which DMSO-only had been added instead of compound. For routine IC50 determinations of compounds, 8 concentrations of a serial dilution (1:3.16) were tested, starting off from 10 μM. Reliable IC50's could consequently be determined only, if they were at least sub 2.5-3 μM.

[2] = system: Interleukin-2 (IL-2) production/release in Jurkat T cell line; test: Jurkat IL-2 Production Assay; assay type: cell-based; conditions: Homo sapiens; Jurkat T cells, PHA stimulation 22 hours
Description: Jurkat IL-2 Production Assay
The effect of compounds of the invention on Interleukin-2 (IL-2) production/release was tested in the Jurkat T cell line (ECACC) clone E6-1. Jurkat T cells were cultured in DMEM/F12/Glutamax (Gibco) containing 10% FCS (Gibco), and maintained at 37° C., 5% CO2. Cell were split twice a week [5*10^6 (Mon-Thu) and 1*10^7 (Thu-Mon) cells/50 ml medium in T-175 ZK culture flasks, respectively]. Prior to experiment, cells were seeded on 96 well plates (Cellstar 96 Well; Cat No. 655180, Greiner bio-one) at a density of 5*10^5 cells/well in DMEM/F12/Glutamax (Gibco) containing 10% FCS (Gibco), and incubated for 60 min at 37° C., 5% CO2. Subsequently, compounds were added and cells were allowed to incubate for 30 min at 37° C., 5% CO2. Cells were then stimulated with 15 μg/ml Phytohemagglutinin (PHA; Sigma) for 22 hours at 37° C., 5% CO2. Before sampling of the supernatants, cells were spun down (200*g/5 min/RT). The amount of IL-2 released into the supernatant was quantified with the human IL-2 AlphaLisa kit (Perkin Elmer) according to manufacturer's instructions. Luminescence proximity measurements were carried out in the Synergy H4 reader (BioTek) employing the fluorescence setting of the reader (ex: 680/30 nm; em: 620/40 nm). Inhibition of IL-production/release in/from Jurkat T cells was quantified as follows: Zero percent inhibition (MAX) was defined as the [IL-2] determined in supernatants derived from cells to which PHA & DMSO-only had been added instead of compound. Hundred percent inhibition (MIN) was defined as the [IL-2] determined in supernatants derived from cells that had been pre-treated with 1 μM CyclosporineA (Sigma) before the addition of 15 μg/ml PHA. For routine IC50 determinations of compounds, 8 concentrations of a serial dilution (1:3.16) were tested, starting off from 10 μM.

[3] = thapsigargin store depletion, read-out: % inhib. [@ 10 μM] FLIPR
[4] = numeric values of Table 2, read-out: inhib. [@ 10 μM] FLIPR

inhibition at 10 µM [1, 3] [%] | IC50 [2] [µM] | inhibition at 10 µM [1, 4] [%] | SMILES
> 70 | 1 to 5 | 98 | Cc1cc(N(C)C)ncc1-c1cc(C(=O)Nc2c(F)cccc2F)nn1C [Example 37, N-(2,6-Difluoro-phenyl)-5-(6-dimethylamino-4-methyl-pyridin-3-yl)-1-methyl-1H-pyrazole-3-carboxylic acid amide]
> 70 | < 0.5 | 94 | Cc1cc(OC(F)(F)F)ncc1-c1cc(C(=O)Nc2c(F)cncc2F)nn1C [Example 11, N-(3,5-Difluoro-pyridin-4-yl)-1-methyl-5-[4-methyl-6-(trifluoromethyloxy)-pyridin-3-yl]-1H-pyrazole-3-carboxylic acid amide]
> 70 | 1 to 5 |  | COc1cc(OC)c(-c2c(C)c(C(=O)Nc3c(F)cncc3F)nn2C)cn1 [Example 65, N-(3,5-Difluoro-pyridin-4-yl)-5-(4,6-dimethoxy-pyridin-3-yl)-1,4-dimethyl-1H-pyrazole-3-carboxylic acid amide]
> 70 | < 0.5 |  | COc1cc(OCC2CC2)ncc1-c1cc(C(=O)Nc2c(F)cccc2F)nn1C [Example 45, 5-[6-(Cyclopropyl-methoxy)-4-methoxy-pyridin-3-yl]-N-(2,6-difluoro-phenyl)-1-methyl-1H-pyrazole-3-carboxylic acid amide]
> 70 | 0.5 to 1 | 95 | CCOc1cc(C)c(-c2cc(C(=O)Nc3c(F)cncc3F)nn2C)cn1 [Example 2, N-(3,5-Difluoro-pyridin-4-yl)-5-(6-ethoxy-4-methyl-pyridin-3-yl)-1-methyl-1H-pyrazole-3-carboxylic acid amide]
> 70 | < 0.5 | 121 | Cc1cc(OCC2CCC2)ncc1-c1cc(C(=O)Nc2c(F)cncc2F)nn1C [Example 20, 5-[6-(Cyclobutyl-methoxy)-4-methyl-pyridin-3-yl]-N-(3,5-difluoro-pyridin-4-yl)-1-methyl-1H-pyrazole-3-carboxylic acid amide]

Continued, compound first:

SMILES | inhibition at 10 µM [1, 3] [%] | IC50 [2] [µM] | inhibition at 10 µM [1, 4] [%]
CCOc1cc(OC2COC2)c(-c2cc(C(=O)Nc3c(F)cccc3F)nn2C)cn1 [Example 49, N-(2,6-Difluoro-phenyl)-5-[6-ethoxy-4-(oxetan-3-yloxy)-pyridin-3-yl]-1-methyl-1H-pyrazole-3-carboxylic acid amide] | 50 to 70 | 1 to 5 | 
Cc1cc(C2CC2)ncc1-c1cc(C(=O)Nc2c(F)cccc2F)nn1C [Example 8, 5-(6-Cyclopropyl-4-methyl-pyridin-3-yl)-N-(2,6-difluoro-phenyl)-1-methyl-1H-pyrazole-3-carboxylic acid amide] | > 70 | 1 to 5 | 81
COc1cc(OC2CC2)ncc1-c1cc(C(=O)Nc2c(F)cccc2F)nn1C [Example 61, 5-(6-Cyclopropyloxy-4-methoxy-pyridin-3-yl)-N-(2,6-difluoro-phenyl)-1-methyl-1H-pyrazole-3-carboxylic acid amide] | > 70 | < 0.5 | 
COCCOc1cc(C)c(-c2cc(C(=O)Nc3c(F)cccc3F)nn2C)cn1 [Example 28, N-(2,6-Difluoro-phenyl)-5-[6-(2-methoxy-ethoxy)-4-methyl-pyridin-3-yl]-1-methyl-1H-pyrazole-3-carboxylic acid amide] | > 70 | 1 to 5 | 87
CCOc1ccc(-c2cc(C(=O)Nc3c(F)cccc3F)nn2C)c(C)n1 [Example 5, N-(2,6-Difluoro-phenyl)-5-(6-ethoxy-2-methyl-pyridin-3-yl)-1-methyl-1H-pyrazole-3-carboxylic acid amide] | > 70 | 1 to 5 | 
COc1cc(OC)c(-c2cc(C(=O)Nc3c(F)cccc3F)n[nH]2)cn1 [Example 69, N-(2,6-Difluoro-phenyl)-5-(4,6-dimethoxy-pyridin-3-yl)-1H-pyrazole-3-carboxylic acid amide hydrochloride] | > 70 | 1 to 5 | 
COc1cc(C2CC2)ncc1-c1cc(C(=O)Nc2c(F)cccc2F)nn1C [Example 54, 5-(6-Cyclopropyl-4-methoxy-pyridin-3-yl)-N-(2,6-difluoro-phenyl)-1-methyl-1H-pyrazole-3-carboxylic acid amide] | > 70 | < 0.5 | 
CCOc1cc(OC(F)F)c(-c2cc(C(=O)Nc3c(F)cccc3F)nn2C)cn1 [Example 47, 5-[4-(Difluoro-methoxy)-6-ethoxy-pyridin-3-yl]-N-(2,6-difluoro-phenyl)-1-methyl-1H-pyrazole-3-carboxylic acid amide] | > 70 | < 0.5 | 
CCc1cc(C)c(-c2cc(C(=O)Nc3c(F)cncc3F)nn2C)cn1 [Example 7, N-(3,5-Difluoro-pyridin-4-yl)-5-(6-ethyl-4-methyl-pyridin-3-yl)-1-methyl-1H-pyrazole-3-carboxylic acid amide] | 50 to 70 | 1 to 5 | 61
COc1cc(OC)c(-c2c(C)c(C(=O)Nc3cncc(F)c3C)nn2C)cn1 [Example 67, 5-(4,6-Dimethoxy-pyridin-3-yl)-N-(5-fluoro-4-methyl-pyridin-3-yl)-1,4-dimethyl-1H-pyrazole-3-carboxylic acid amide] | > 70 | 1 to 5 | 
Cc1cc(OC2COC2)ncc1-c1cc(C(=O)Nc2c(F)cccc2F)nn1C [Example 23, N-(2,6-Difluoro-phenyl)-1-methyl-5-[4-methyl-6-(oxetan-3-yloxy)-pyridin-3-yl]-1H-pyrazole-3-carboxylic acid amide] | > 70 | 1 to 5 | 94
CCOc1cc(OC)c(-c2cc(C(=O)Nc3c(F)cncc3F)nn2C)cn1 [Example 14, N-(3,5-Difluoro-pyridin-4-yl)-5-(6-ethoxy-4-methoxy-pyridin-3-yl)-1-methyl-1H-pyrazole-3-carboxylic acid amide] | > 70 | < 0.5 | 
COc1cc(OCC2CCC2)ncc1-c1cc(C(=O)Nc2c(F)cccc2F)nn1C [Example 55, 5-[6-(Cyclobutyl-methoxy)-4-methoxy-pyridin-3-yl]-N-(2,6-difluoro-phenyl)-1-methyl-1H-pyrazole-3-carboxylic acid amide] | > 70 | < 0.5 | 
CCOc1cc(OCC)c(-c2cc(C(=O)Nc3c(F)cccc3F)nn2C)cn1 [Example 17, 5-(4,6-Diethoxy-pyridin-3-yl)-N-(2,6-difluoro-phenyl)-1-methyl-1H-pyrazole-3-carboxylic acid amide] | > 70 | < 0.5 | 
